Assay results from patent US8063065B2, “Azaindazole compounds as CCR1 receptor antagonists” (Boehringer Ingelheim International GmbH, priority 2008, dated 2011).
pIC50: −log10 of the molar value.

Target: T1, CCR1 (Homo sapiens, UniProt P32246)
T1 sequence (P32246 1-355): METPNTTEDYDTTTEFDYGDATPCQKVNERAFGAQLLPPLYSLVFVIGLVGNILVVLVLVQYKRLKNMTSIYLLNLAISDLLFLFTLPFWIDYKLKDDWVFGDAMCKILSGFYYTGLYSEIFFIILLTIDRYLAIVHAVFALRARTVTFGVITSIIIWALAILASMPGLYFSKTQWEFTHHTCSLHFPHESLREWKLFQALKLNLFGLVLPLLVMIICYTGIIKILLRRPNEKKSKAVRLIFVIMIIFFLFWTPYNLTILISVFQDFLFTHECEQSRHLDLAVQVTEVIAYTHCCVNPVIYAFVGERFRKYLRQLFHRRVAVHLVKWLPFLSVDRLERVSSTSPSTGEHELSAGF
Test: Method B: calcium flux in CCR1 transfected cells (Calcium 4 dye, […] FDSS6000), block of the CCR1/MIP-1α interaction
Type: cell-based
Settings: Method B: Calcium 4 dye, MIP-1alpha at EC80
Procedure: Compounds are assessed for the ability to block the interaction of CCR1 and MIP-1α in a functional cellular assay measuring calcium flux in CCR1 transfected cells.
Method B: Non-adherent cells purchased from Chemicon Corporation (HTS005C), stably expressing recombinant CCR1 and G-alpha-16 are grown in RPMI 1640 medium (Mediatech 10-080-CM) supplemented with 10% FBS, 0.4 mg/mL Geneticin and penicillin/streptomycin. On the day of the assay, the cells are loaded with Calcium 4 dye (Molecular Devices R7448) with Probenecid (Invitrogen P346400) at 8E5 cells/mL for 1 hour at room temperature. After 1 hour, they are seeded in a 384-well tissue culture-treated plate at a density of 20,000 cells/well. Appropriately diluted test compound is added to the well to achieve a top concentration of 3,000 nM (diluted 4-fold with 10 doses total). The final concentration of DMSO is 1%. The buffer is HBSS (Invitrogen 14025) with 20 mM HEPES at pH 7.4. The cells incubate 30 minutes at 37 C and then 30 minutes at room temperature. The plates are transferred to the […] FDSS6000 where MIP-1alpha in 1% BSA is added at the EC80 final concentration. All plates must be read within 4 hours of the start of dye-loading. Wells+/−MIP-1alpha containing diluted DMSO instead of compound serve as the controls. Data are analyzed using Activity Base software.

SMILES | pIC50
CC[C@H](NC(=O)c1cncc2c1cnn2-c1ccc(F)cc1)c1cc(NC)nc(S(C)(=O)=O)c1 [1-(4-Fluorophenyl)-1H-pyrazolo[3,4-c]pyridine-4-carboxylic acid [(S)-1-(2-methanesulfonyl-6-methylamino-pyridin-4-yl)-propyl]-amide] | 9.52
CS(=O)(=O)c1cc([C@H](CO)NC(=O)c2cncc3c2cnn3-c2ccc(F)cc2)ccn1 [1-(4-Fluorophenyl)-1H-pyrazolo[3,4-c]pyridine-4-carboxylic acid [(R)-2-hydroxy-1-(2-methanesulfonyl-pyridin-4-yl)-ethyl]-amide] | 8.22
CS(=O)(=O)c1cc(CNC(=O)c2cncc3c2cnn3-c2ccc(F)cc2)cc(Br)n1 [1-(4-Fluorophenyl)-1H-pyrazolo[3,4-c]pyridine-4-carboxylic acid (2-bromo-6-methanesulfonyl-pyridin-4-ylmethyl)-amide] | 9.00
CCS(=O)(=O)c1cc([C@H](C)NC(=O)c2cncc3c2cnn3-c2ccc(F)cc2)ccn1 [1-(4-Fluorophenyl)-1H-pyrazolo[3,4-c]pyridine-4-carboxylic acid [(S)-1-(2-ethanesulfonyl-pyridin-4-yl)-ethyl]-amide] | 8.70
CC[C@H](NC(=O)c1cncc2c1cnn2-c1ccc(F)cc1)c1ccnc(N(C)CCOC)c1 [1-(4-Fluorophenyl)-1H-pyrazolo[3,4-c]pyridine-4-carboxylic acid ((S)-1-{2-[(2-methoxy-ethyl)-methyl-amino]-pyridin-4-yl}-propyl)-amide] | 9.00
CCC(NC(=O)c1cncc2c1cnn2-c1ccc(F)cc1)c1nc(C(N)=O)c(C)o1 (centres unmarked) [1-(4-Fluorophenyl)-1H-pyrazolo[3,4-c]pyridine-4-carboxylic acid [1-(4-carbamoyl-5-methyl-oxazol-2-yl)-propyl]-amide] | 7.59
CN(c1ncc(CNC(=O)c2cncc3c2cnn3-c2ccc(F)cc2)cn1)S(C)(=O)=O [1-(4-Fluorophenyl)-1H-pyrazolo[3,4-c]pyridine-4-carboxylic acid [2-(methanesulfonyl-methyl-amino)-pyrimidin-5-ylmethyl]-amide] | 8.70
CC[C@H](NC(=O)c1cncc2c1cnn2-c1ccc(F)cc1)c1cc(N(C)C)nc(S(C)(=O)=O)c1 [1-(4-Fluorophenyl)-1H-pyrazolo[3,4-c]pyridine-4-carboxylic acid [(S)-1-(2-dimethylamino-6-methanesulfonyl-pyridin-4-yl)-propyl]-amide] | 9.70
CC[C@H](NC(=O)c1cncc2c1cnn2-c1ccc(F)cc1)c1ccccn1 [1-(4-Fluorophenyl)-1H-pyrazolo[3,4-c]pyridine-4-carboxylic acid ((S)-1-pyridin-2-yl-propyl)-amide] | 7.64
CC[C@H](NC(=O)c1cncc2c1cnn2-c1ccc(F)cc1)c1ccnc(N(C)CCO)c1 [1-(4-Fluorophenyl)-1H-pyrazolo[3,4-c]pyridine-4-carboxylic acid ((S)-1-{2-[(2-hydroxy-ethyl)-methyl-amino]-pyridin-4-yl}-propyl)-amide] | 8.70
CS(=O)(=O)c1csc(CNC(=O)c2cncc3c2cnn3-c2ccc(F)cc2)c1 [1-(4-Fluorophenyl)-1H-pyrazolo[3,4-c]pyridine-4-carboxylic acid (4-methanesulfonyl-thiophen-2-ylmethyl)-amide] | 8.30
CC[C@H](NC(=O)c1cncc2c1cnn2-c1ccc(F)cc1)c1ccnc(CO)c1 [1-(4-Fluorophenyl)-1H-pyrazolo[3,4-c]pyridine-4-carboxylic acid [(S)-1-(2-hydroxymethyl-pyridin-4-yl)-propyl]-amide] | 8.52
CC[C@@H](NC(=O)c1cncc2c1cnn2-c1ccc(F)cc1)c1ccc(OC)c(Br)c1 [1-(4-Fluorophenyl)-1H-pyrazolo[3,4-c]pyridine-4-carboxylic acid [(R)-1-(3-bromo-4-methoxy-phenyl)-propyl]-amide] | 9.70

Results, then the compound that gave them:

pIC50 | SMILES
9.05 | CC[C@H](NC(=O)c1cncc2c1cnn2-c1ccc(F)cc1)c1c[nH]c(S(C)(=O)=O)c1 [1-(4-Fluorophenyl)-1H-pyrazolo[3,4-c]pyridine-4-carboxylic acid [(S)-1-(5-methanesulfonyl-1H-pyrrol-3-yl)-propyl]-amide]
7.59 | CCC(NC(=O)c1cncc2c1cnn2-c1ccc(F)cc1)c1nc(C(=O)NCC(=O)OC)c(C)o1 (centres unmarked) [{[2-(1-{[1-(4-Fluorophenyl)-1H-pyrazolo[3,4-c]pyridine-4-carbonyl]-amino}-propyl)-5-methyl-oxazole-4-carbonyl]-amino}-acetic acid methyl ester]
7.92 | CC[C@H](NC(=O)c1cncc2c1cnn2-c1ccc(F)cc1)c1ccnc(C(=O)O)c1 [4-((S)-1-{[1-(4-Fluorophenyl)-1H-pyrazolo[3,4-c]pyridine-4-carbonyl]-amino}-propyl)-pyridine-2-carboxylic acid]
8.30 | CC[C@H](NC(=O)c1cncc2c1cnn2-c1ccc(F)cc1)c1ccnc(N(C)C(C)=O)c1 [1-(4-Fluorophenyl)-1H-pyrazolo[3,4-c]pyridine-4-carboxylic acid {(S)-1-[2-(acetyl-methyl-amino)-pyridin-4-yl]-propyl}-amide]
7.42 | C[C@H](NC(=O)c1cncc2c1cnn2-c1ccc(F)cc1)c1ccnc(S(=O)(=O)CCCO)c1 [1-(4-Fluorophenyl)-1H-pyrazolo[3,4-c]pyridine-4-carboxylic acid {(S)-1-[2-(3-hydroxy-propane-1-sulfonyl)-pyridin-4-yl]-ethyl}-amide]
9.10 | CC[C@H](NC(=O)c1cncc2c1cnn2-c1ccc(F)cc1)c1cc(S(C)(=O)=O)ccn1 [1-(4-Fluorophenyl)-1H-pyrazolo[3,4-c]pyridine-4-carboxylic acid [(S)-1-(4-methanesulfonyl-pyridin-2-yl)-propyl]-amide]
7.46 | COC(=O)CCS(=O)(=O)c1cccc([C@H](C)NC(=O)c2cncc3c2cnn3-c2ccc(F)cc2)n1 [3-[6-((S)-1-{[1-(4-Fluorophenyl)-1H-pyrazolo[3,4-c]pyridine-4-carbonyl]-amino}-ethyl)-pyridine-2-sulfonyl]-propionic acid methyl ester]
9.40 | CC[C@H](NC(=O)c1cncc2c1cnn2-c1ccc(F)cc1)c1ccnc(S(N)(=O)=O)c1 [1-(4-Fluorophenyl)-1H-pyrazolo[3,4-c]pyridine-4-carboxylic acid [(S)-1-(2-sulfamoyl-pyridin-4-yl)-propyl]-amide]
9.40 | CC[C@H](NC(=O)c1cncc2c1cnn2-c1ccc(F)cc1)c1csc(S(C)(=O)=O)n1 [1-(4-Fluorophenyl)-1H-pyrazolo[3,4-c]pyridine-4-carboxylic acid [(S)-1-(2-methanesulfonyl-thiazol-4-yl)-propyl]-amide]
9.70 | CC[C@H](NC(=O)c1cncc2c1cnn2-c1ccc(F)cc1)c1ccnc(SC)c1 [1-(4-Fluorophenyl)-1H-pyrazolo[3,4-c]pyridine-4-carboxylic acid [(S)-1-(2-methylsulfanyl-pyridin-4-yl)-propyl]-amide]
9.00 | CC[C@H](NC(=O)c1cncc2c1cnn2-c1ccc(F)cc1)c1ccnc(S(=O)(=O)CCC(=O)OC)c1 [3-[4-((S)-1-{[1-(4-Fluorophenyl)-1H-pyrazolo[3,4-c]pyridine-4-carbonyl]-amino}-propyl)-pyridine-2-sulfonyl]-propionic acid methyl ester]
7.96 | CC[C@H](NC(=O)c1cncc2c1cnn2-c1ccc(F)cc1)c1ccnc(N(C)C2CCNCC2)c1 [1-(4-Fluorophenyl)-1H-pyrazolo[3,4-c]pyridine-4-carboxylic acid {(S)-1-[2-(methyl-piperidin-4-yl-amino)-pyridin-4-yl]-propyl}-amide]
8.40 | CC[C@H](NC(=O)c1cncc2c1cnn2-c1ccc(F)cc1)c1ccnc(NC)c1 [1-(4-Fluorophenyl)-1H-pyrazolo[3,4-c]pyridine-4-carboxylic acid [(S)-1-(2-methylamino-pyridin-4-yl)-propyl]-amide]
8.52 | CC[C@H](NC(=O)c1cncc2c1cnn2-c1ccc(F)cc1)c1cnc(S(C)(=O)=O)o1 [1-(4-Fluorophenyl)-1H-pyrazolo[3,4-c]pyridine-4-carboxylic acid [(S)-1-(2-methanesulfonyl-oxazol-5-yl)-propyl]-amide]
7.72 | C[C@H](NC(=O)c1cncc2c1cnn2-c1ccc(F)cc1)c1cnc(S(C)(=O)=O)o1 [1-(4-Fluorophenyl)-1H-pyrazolo[3,4-c]pyridine-4-carboxylic acid [(S)-1-(2-methanesulfonyl-oxazol-5-yl)-ethyl]-amide]
8.52 | CC[C@H](NC(=O)c1cncc2c1cnn2-c1ccc(F)cc1)c1ccnc(N2CCC(F)(F)CC2)c1 [1-(4-Fluorophenyl)-1H-pyrazolo[3,4-c]pyridine-4-carboxylic acid [(S)-1-(4,4-difluoro-3,4,5,6-tetrahydro-2H-[1,2′]bipyridinyl-4′-yl)-propyl]-amide]
